Experimental data from patent publication US12622887B2 (priority 2019, dated 2026).

Experiments:
αKlotho = assay: Release of soluble αKlotho in supernatant of primary tubule cell cultures (RPTEC), ELISA; assay type: cell-based; details: for Average Klotho value: RPTEC supernatant
Procedure: Concentrations of H2O2 equal to 0.1, 0.2, 0.5 up to 1 mM were also tested. […] The soluble aKlotho analysis was performed using the commercial test ELISA lbl code 277789 following the manufacturer's instructions. […] The soluble aKlotho analysis was performed using ELISA lbl test.

[1] = system: primary renal tubule cells; assay: MTT test, cell proliferation/viability of primary renal tubule cells; assay type: cell-based; details: tubule cells exposed to H2O2 0.5 mM alone

For `C[N+](C)(C)C[C@H](O)CC(=O)[O-]` [Carnitine, L-Carnitine], the “Average Klotho value” (αKlotho; pre-treatment 12 h at 5 mM, then 6 h Gentamicin sulphate 10 mM) was 6.68 pg/mL, the “Average Klotho value” (αKlotho; pre-treatment 12 h at 5 mM, then 6 h Iodixanol 100 mg/ml) was 77.06 pg/mL and the “Average Klotho value” (αKlotho; pretreatment 12 h at 5 mM, then 6 h H2O2 0.1 mM) was 140.25 pg/mL.

`OO` [H2O2] was tested, and the “Lowest concentration able to induce a statistically significant reduction in Klotho” value (αKlotho; 6 hours exposure of primary tubule cells) was 0.1 mM, the “Average Klotho value” (αKlotho; H2O2 6 h alone (0.1 mM), no pretreatment) was 55.42 pg/mL and the “Cell viability (MTT test)” value [1] was “significant reduction in cell viability”.

With `CC(=O)N(CC(O)CN(C(C)=O)c1c(I)c(C(=O)NCC(O)CO)c(I)c(C(=O)NCC(O)CO)c1I)c1c(I)c(C(=O)NCC(O)CO)c(I)c(C(=O)NCC(O)CO)c1I` (centres unmarked) [Iodixanol] the “Change in Klotho compared to the basal condition” value (αKlotho; Iodixanol contrast medium only, 6 hours) was “drastic reduction in Klotho” and the “Average Klotho value” (αKlotho; Iodixanol 100 mg/ml 6 h alone) was 0 pg/mL.
